Source: patent publication US9326960B2, “Composition for preventing or treating eye diseases, containing S-allyl-L-cysteine as active ingredient, and pharmaceutical formulation containing same” (PHARMAKING CO., LTD., priority 2012, dated 2016)

Experiments:
[1] = Suppressive activity against blue light-induced oxidation of A2E (cell-free, absorbance); settings: 20 μM A2E in PBS, blue light ca. 430 nm, compared to non-treated
Procedure: Assay of S-Allyl-Cysteine for Suppressive Activity Against Blue Light-Induced Oxidation of A2E S-Allyl-cysteine was assayed for the ability to suppress the blue light-induced oxidation of A2E. First, 100 μM A2E was diluted to 20 μM in phosphate buffered saline (PBS), and 200 μl of the dilution was placed in each well of 96-well plates. Then, a negative control, a positive control (lutein 20 μM), or predetermined concentrations of S-allyl-cysteine (1, 10, 100 μM) were added to the dilution, and mixed by pipetting. An LED lamp emitting blue light with a central wavelength of ca. 430 nm was operated above the microplates to induce photo-oxidation until the A2E absorbance was reduced by half. Absorbance was read on an ELISA before and after the induction of photo-oxidation. The measurements were applied to an A2E standard curve to obtain concentrations of A2E, and the difference in concentration before and after exposure to blue light was used to obtain the concentration of oxidized A2E. From the data, the inhibitory activity of the sample against A2E photo-oxidation was calculated according to the following Mathematical Formula 1. In Formula 1, Abs. means absorbance. [formula] A=Abs. of A2E−Abs. of A2E+blue light B={Abs. of A2E+sample)−Abs. of sample}−{(Abs. of A2E+sample+blue light)−(Abs. of sample−Abs. of sample+blue light)} In order to evaluate the inhibitory activity of S-allyl-L-cysteine against A2E photooxidation, concentrations of oxidized A2E were measured after exposure to blue radiation as described in Experimental Example 1, and the results are depicted in FIG. 1.

[2] = test system: Human retinal pigment epithelial cell line (ARPE-19); test: Cytoprotective activity against blue light-induced apoptosis of A2E-accumulated ARPE-19 cells (MTT assay); assay type: cell-based; settings: A2E-accumulated ARPE-19 exposed to blue light; for increase of cell viability: compared to the negative control
Description: The retinal pigment cell line used in experiments and analyses of the present invention arose from a retinal pigment epithelial cell line (ARPE-19: ATCC no. CRL-2302) purchased from the ATCC (American Type Culture Collection, Manassas Va.), and was maintained by passage as described in document (Sparrow, J. R. et al., A2E, alipofuscin fluorophore, in human retinal pigmented epithelial cells in culture. Invest Ophthalmol Vis Sci 1999, 40(12), 2988-95).
Briefly, the retinal pigment cell line was cultured in Dulbecco's modified Eagle's medium (DMEM, Gibco, USA) supplemented with antibiotics (Gibco, USA) including 100 U/ml penicillin, […] streptomycin, and amphotericin B, and 10% fetal bovine serum (Hyclone, USA) at 37° C. under 5% CO2 conditions. The cells were allowed to adhere to the bottom of the culture plate, and cultured, with passage by treatment with a mixture of 1:4 trypsin:10% fetal bovine serum (Gibco, USA)-supplemented medium upon confluence.
For use in experiments, the cells were seeded at a density of 5×10^4 cells/well into 6-well plates.
Cytoprotective Activity of S-Allyl-Cysteine Against Blue Light-Induced Apoptosis of A2E-Accumulated Human Retinal Pigment Epithelial Cell Line CARPE-19)
Human retinal pigment cell line (ARPE-19) was seeded at a density of 5×10^4 cells/well into 96-well plates, and incubated with 20 μM A2E for 7 days to accumulate A2E. Then, the cells were treated with a negative control, a positive control (lutein: 20 μM), or predetermined concentrations of S-allyl-cysteine (1, 10, 100 μM) before exposure to blue light as described above.
Thereafter, cell viability was measured using 3-(4,5-dimethylthiazol-2-yl)-2,5-diphenyltetrazoliumbromide (MTT) assay. An MTT assay is a standard colorimetric assay for assessing cell viability, usually in a lab. Generally, viable cells are counted using a hemocytometer, or by measuring optical density; however, this method requires too much time and labor for large numbers of cells, and is apt to yield inaccurate results. As an alternative, the MTT assay is designed such that the yellow substrate tetrazolium MTT is reduced by metabolically active cells, in part by the action of mitochondrial dehydrogenase enzymes, into purple formazan that can be solubilized and quantified by spectrophotometric means. This assay can analyze the proliferation behavior of large numbers of cells rapidly and accurately. […] More viable cells produce a greater amount of formazan crystals, recoding higher absorbance.
According to the MTT assay (Sigma-Aldrich Inc., St. Louis, Mo., U.S.A.), DMEM containing 0.5 mg/ml MTT was added to each well and incubated at 37° C. for 2 hrs in an incubator under dark conditions. […]

Row | SMILES | decrease of concentration of oxidized A2E ([1]; 1 μM S-allyl-cysteine) [%] | decrease of concentration of oxidized A2E ([1]; 10 μM S-allyl-cysteine) [%] | decrease of concentration of oxidized A2E ([1]; 100 μM S-allyl-cysteine) [%] | increase of cell viability ([2]; 1 μM) [%] | increase of cell viability ([2]; 10 μM) [%] | increase of cell viability ([2]; 100 μM) [%] | cell viability versus negative control (result in words) ([2]; lutein 20 μM)
1 | C=CCSC[C@H](N)C(=O)O [S-allyl-cysteine, S-allyl-L-cysteine] | 20 | 32 | 41 | 63 | 134 | 167 | 
2 | CC1=C[C@H](O)CC(C)(C)[C@H]1/C=C/C(C)=C/C=C/C(C)=C/C=C/C=C(C)/C=C/C=C(C)/C=C/C1=C(C)C[C@@H](O)CC1(C)C [positive control, lutein, reference compound] |  |  |  |  |  |  | significant difference in cell viability
